Results reported in patent US9284333B2, “Fused pyrroledicarboxamides and their use as pharmaceuticals” (SANOFI, priority 2012, dated 2016).

Target: Human TASK-1 channels (Homo sapiens (Human), UniProt O14649)
Experiment: Determination of the activity on the TASK-1 channel in Xenopus oocytes (two-microelectrode voltage clamp)
Format: cell-based
Conditions: compound concentration 5 μM
Outline: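 Current during 500 ms pulses to 40 mV from a −90 mV hold was recorded in oocytes expressing human TASK-1 for two days after cRNA injection. Compounds were added cumulatively to the ND96 bath (pH 7.4, room temperature). IC50 came from dose-response fitting of inhibition relative to pre-compound current.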

Human TASK-1 channels, sequence (O14649 whole entry): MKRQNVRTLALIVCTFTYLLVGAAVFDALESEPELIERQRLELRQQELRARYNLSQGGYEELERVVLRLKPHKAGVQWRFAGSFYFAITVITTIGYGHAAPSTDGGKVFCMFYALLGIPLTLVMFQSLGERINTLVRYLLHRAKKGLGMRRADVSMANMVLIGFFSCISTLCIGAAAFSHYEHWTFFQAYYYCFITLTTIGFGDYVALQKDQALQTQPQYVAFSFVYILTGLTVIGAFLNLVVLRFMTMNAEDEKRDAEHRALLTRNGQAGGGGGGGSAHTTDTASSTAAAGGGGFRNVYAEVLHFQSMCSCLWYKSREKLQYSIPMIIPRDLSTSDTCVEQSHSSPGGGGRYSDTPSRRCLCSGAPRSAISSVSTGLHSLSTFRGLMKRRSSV

| Compound | inhibition at 5 µM |
| --- | --- |
| CC[C@@H](NC(=O)c1cc(C(=O)N2CCC[C@@H]2C)n2c1COCC2)c1ccc(SC)nc1 [16ra, 6-((S)-2-Methyl-pyrrolidine-1-carbonyl)-3,4-dihydro-1H-pyrrolo[2,1-c][1,4]oxazine-8-carboxylic acid [(R)-1-(6-methylsulfanyl-pyridin-3-yl)-propyl]-amide] | 60% |
| CC[C@@H](NC(=O)c1cc(C(=O)N[C@H](CC)c2nccs2)n2c1COCC2)c1ccc(C(F)(F)F)nc1 (racemic) [16pd, 3,4-Dihydro-1H-pyrrolo[2,1-c][1,4]oxazine-6,8-dicarboxylic acid 6-[((R)-1-thiazol-2-yl-propyl)-amide] 8-{[(R)-1-(6-trifluoromethyl-pyridin-3-yl)-propyl]-amide}] | 82% |
| CC[C@@H](NC(=O)c1cc(C(=O)NC(C)c2nnnn2CC)n2c1COCC2)c1ccccc1 (stereo partly drawn) [16rr, 3,4-Dihydro-1H-pyrrolo[2,1-c][1,4]oxazine-6,8-dicarboxylic acid 6-{[1-(1-ethyl-1H-tetrazol-5-yl)-ethyl]-amide} 8-[((R)-1-phenyl-propyl)-amide]] | 71% |

Same assay, conditions: human TASK-1 expressed in Xenopus oocytes, room temperature; read-out: IC50 value for TASK-1 inhibition

| Compound | IC50 |
| --- | --- |
| CC[C@@H](NC(=O)c1cc(C(=O)NC(C)c2cccc(S(=O)(=O)N(C)C)c2)n2c1COCC2)c1ccccc1 (stereo partly drawn) [16rj, 3,4-Dihydro-1H-pyrrolo[2,1-c][1,4]oxazine-6,8-dicarboxylic acid 6-{[1-(3-dimethylsulfamoyl-phenyl)-ethyl]-amide} 8-[((R)-1-phenyl-propyl)-amide]] | 1100 nM |
| CC[C@@H](NC(=O)c1cc(C(=O)N2CCC[C@@H]2C)n2c1COCC2)c1ccc(C(F)(F)F)cc1Cl [16cq, 6-((S)-2-Methyl-pyrrolidine-1-carbonyl)-3,4-dihydro-1H-pyrrolo[2,1-c][1,4]oxazine-8-carboxylic acid [(R)-1-(2-chloro-4-trifluoromethyl-phenyl)-propyl]-amide] | 300 nM |
| CC(C)[C@@H](NC(=O)c1cc(C(=O)N2CCC[C@@H]2C)n2c1COCC2)c1ccc(C(F)(F)F)nc1 [16aq, 6-((S)-2-Methyl-pyrrolidine-1-carbonyl)-3,4-dihydro-1H-pyrrolo[2,1-c][1,4]oxazine-8-carboxylic acid [(R)-2-methyl-1-(6-trifluoromethyl-pyridin-3-yl)-propyl]-amide] | 460 nM |
| CC[C@@H](NC(=O)c1cc(C(=O)N2CCC[C@@H]2C)n2c1CCCC2)c1ccc(C#N)cc1 [16lx, 3-((S)-2-Methyl-pyrrolidine-1-carbonyl)-5,6,7,8-tetrahydro-indolizine-1-carboxylic acid [(R)-1-(4-cyano-phenyl)-propyl]-amide] | 200 nM |
| CC[C@@H](NC(=O)c1cc(C(=O)N2CCC[C@@H]2c2cnccn2)n2c1COCC2)c1ccccc1 [16fp, 6-((R)-2-Pyrazin-2-yl-pyrrolidine-1-carbonyl)-3,4-dihydro-1H-pyrrolo[2,1-c][1,4]oxazine-8-carboxylic acid ((R)-1-phenyl-propyl)-amide] | 1900 nM |
| CC[C@@H](NC(=O)c1cc(C(=O)NCC(CC2CC2)c2ccccc2)n2c1CCCC2)c1ccccc1 (stereo partly drawn) [16na, 5,6,7,8-Tetrahydro-indolizine-1,3-dicarboxylic acid 3-[(3-cyclopropyl-2-phenyl-propyl)-amide] 1-[((R)-1-phenyl-propyl)-amide]] | 1700 nM |
| CC[C@@H](NC(=O)c1c(C)c(C(=O)N2CCC[C@@H]2C)n2c1COCC2)c1ccc(C(F)(F)F)nc1 [16rx, 7-Methyl-6-((S)-2-methyl-pyrrolidine-1-carbonyl)-3,4-dihydro-1H-pyrrolo[2,1-c][1,4]oxazine-8-carboxylic acid [(R)-1-(6-trifluoromethyl-pyridin-3-yl)-propyl]-amide] | 4700 nM |
| CC[C@@H](NC(=O)c1cc(C(=O)N2CCOCC2)n2c1COCC2)c1ccccc1 [16eh, 6-(Morpholine-4-carbonyl)-3,4-dihydro-1H-pyrrolo[2,1-c][1,4]oxazine-8-carboxylic acid ((R)-1-phenyl-propyl)-amide] | 1700 nM |
| CCOC(=O)CNC(=O)c1cc(C(=O)N[C@H](CC)c2ccccc2)c2n1CCOC2 [16k, {[8-((R)-1-Phenyl-propylcarbamoyl)-3,4-dihydro-1H-pyrrolo[2,1-c][1,4]oxazine-6-carbonyl]-amino}-acetic acid ethyl ester] | 180 nM |
| CC[C@@H](NC(=O)c1cc(C(=O)N2CCC[C@@H]2C)n2c1COCC2)c1ccc(C(F)(F)F)nc1C [16cb, 6-((S)-2-Methyl-pyrrolidine-1-carbonyl)-3,4-dihydro-1H-pyrrolo[2,1-c][1,4]oxazine-8-carboxylic acid [(R)-1-(2-methyl-6-trifluoromethyl-pyridin-3-yl)-propyl]-amide] | 140 nM |
| C[C@H](NC(=O)c1cc(C(=O)N[C@H](C)c2ccc(F)cc2)n2c1COCC2)c1ncccn1 (racemic) [16dx, 3,4-Dihydro-1H-pyrrolo[2,1-c][1,4]oxazine-6,8-dicarboxylic acid 6-{[(R)-1-(4-fluoro-phenyl)-ethyl]-amide} 8-[((S)-1-pyrimidin-2-yl-ethyl)-amide]] | 1200 nM |
| CC[C@@H](NC(=O)c1cc(C(=O)N[C@H](C)c2ccc(F)cc2)n2c1COCC2)c1ncc(C(F)(F)F)cn1 [16ed, 3,4-Dihydro-1H-pyrrolo[2,1-c][1,4]oxazine-6,8-dicarboxylic acid 6-{[(R)-1-(4-fluoro-phenyl)-ethyl]-amide} 8-{[(R)-1-(5-trifluoromethyl-pyrimidin-2-yl)-propyl]-amide}] | 300 nM |
| CC[C@@H](NC(=O)c1cc(C(=O)N[C@H](CC)c2ccccc2)n2c1COCC2)c1ccc(OC)nc1 [16jo, 3,4-Dihydro-1H-pyrrolo[2,1-c][1,4]oxazine-6,8-dicarboxylic acid 8-{[(R)-1-(6-methoxy-pyridin-3-yl)-propyl]-amide} 6-[((R)-1-phenyl-propyl)-amide]] | 250 nM |
| CC[C@@H](NC(=O)c1cc(C(=O)N2CCC[C@@H]2C)n2c1COCC2)c1ccc(Cl)c(C(F)(F)F)c1 [16cs, 6-((S)-Methyl-pyrrolidine-1-carbonyl)-3,4-dihydro-1H-pyrrolo[2,1-c][1,4]oxazine-8-carboxylic acid [(R)-1-(4-chloro-3-trifluoromethyl-phenyl)-propyl]-amide] | 290 nM |
| CC[C@@H](NC(=O)c1cc(C(=O)N2CCC[C@@H]2c2ccccn2)n2c1COCC2)c1ccccc1 [16fk, 6-((R)-2-Pyridin-2-yl-pyrrolidine-1-carbonyl)-3,4-dihydro-1H-pyrrolo[2,1-c][1,4]oxazine-8-carboxylic acid ((R)-1-phenyl-propyl)-amide] | 290 nM |
| CC[C@@H](NC(=O)c1cc(C(=O)N2CC[C@H](Oc3ccc(F)cc3)C2)n2c1COCC2)c1ccccc1 [16fu, 6-[(S)-3-(4-Fluoro-phenoxy)-pyrrolidine-1-carbonyl]-3,4-dihydro-1H-pyrrolo[2,1-c][1,4]oxazine-8-carboxylic acid ((R)-1-phenyl-propyl)-amid] | 240 nM |
| CC[C@@H](NC(=O)c1cc(C(=O)NCc2nccs2)c2n1CCCC2)c1ccccc1 [16md, 5,6,7,8-Tetrahydro-indolizine-1,3-dicarboxylic acid 3-[((R)-1-phenyl-propyl)-amide] 1-[(thiazol-2-ylmethyl)-amide]] | 80 nM |
| CC[C@@H](NC(=O)c1cc(C(=O)N[C@H](C)c2ccc(F)cc2)n2c1CSC2)c1ccccc1 [16ky, 1H-Pyrrolo[1,2-c]thiazole-5,7-dicarboxylic acid 5-{[(R)-1-(4-fluoro-phenyl)-ethyl]-amide} 7-[((R)-1-phenyl-propyl)-amide]] | 33 nM |
| CC[C@@H](NC(=O)c1cc(C(=O)N2CCCC2C(C)(C)O)n2c1COCC2)c1ccccc1 (stereo partly drawn) [16ew, 6-[2-(1-Hydroxy-1-methyl-ethyl)-pyrrolidine-1-carbonyl]-3,4-dihydro-1H-pyrrolo[2,1-c][1,4]oxazine-8-carboxylic acid ((R)-1-phenyl-propyl)-amide] | 3700 nM |
| CC[C@@H](NC(=O)c1cc(C(=O)N2CCC[C@@H]2C)n2c1COCC2)c1ccc(C#N)cc1Cl [16bb, 6-((S)-2-Methyl-pyrrolidine-1-carbonyl)-3,4-dihydro-1H-pyrrolo[2,1-c][1,4]oxazine-8-carboxylic acid [(R)-1-(2-chloro-4-cyano-phenyl)-propyl]-amide] | 790 nM |
| CC[C@@H](NC(=O)c1cc(C(=O)N2CCC[C@@H]2C)n2c1COCC2)c1ccc(C(F)(F)F)cn1 [16bl, 6-((S)-2-Methyl-pyrrolidine-1-carbonyl)-3,4-dihydro-1H-pyrrolo[2,1-c][1,4]oxazine-8-carboxylic acid [(R)-1-(5-trifluoromethyl-pyridin-2-yl)-propyl]-amide] | 820 nM |
| CC(C)[C@@H](NC(=O)c1cc(C(=O)N2CCCC2)c2n1CCOC2)c1ccc(F)cc1 [16lm, 8-(Pyrrolidine-1-carbonyl)-3,4-dihydro-1H-pyrrolo[2,1-c][1,4]oxazine-6-carboxylic acid [(R)-1-(4-fluoro-phenyl)-2-methyl-propyl]-amide] | 270 nM |
| CC[C@@H](NC(=O)c1cc(C(=O)Nc2c(C)noc2C)n2c1CCCC2)c1ccccc1 [16nd, 5,6,7,8-Tetrahydro-indolizine-1,3-dicarboxylic acid 3-[(3,5-dimethyl-isoxazol-4-yl)-amide] 1-[((R)-1-phenyl-propyl)-amide]] | 210 nM |
| CC[C@@H](NC(=O)c1cc(C(=O)N2CCC[C@H]2C)n2c1COCC2)c1ccc(C(F)(F)F)nc1 [16ny, 6-((R)-2-Methyl-pyrrolidine-1-carbonyl)-3,4-dihydro-1H-pyrrolo[2,1-c][1,4]oxazine-8-carboxylic acid [(R)-1-(6-trifluoromethyl-pyridin-3-yl)-propyl]-amide] | 2800 nM |
| 3,4-Dihydro-1H-pyrrolo[2,1-c][1,4]oxazine-6,8-dicarboxylic acid 6-{[(R)-1-(4-fluoro-phenyl)-ethyl]-amide} 8-{[(S)-1-(5-methoxy-pyrazin-2-yl)-propyl]-amide} [16dv] | 190 nM |
| CC[C@@H](NC(=O)c1cc(C(=O)NCc2cnco2)c2n1CCCC2)c1ccccc1 [16mc, 5,67,8-Tetrahydro-indolizine-1,3-dicarboxylic acid 1-[(oxazol-5-ylmethyl)-amide] 3-[((R)-1-phenyl-propyl)-amide]] | 620 nM |
